Experimental findings from patent publication US8642788B2, “Activators of executioner procaspases 3, 6 and 7” (The Regents of the University of California, priority 2008, dated 2014) are described below.

What all share (assay type): biochemical
One test addresses T1, procaspase-6 (Homo sapiens, UniProt P55212).
T1 sequence (P55212 1-293): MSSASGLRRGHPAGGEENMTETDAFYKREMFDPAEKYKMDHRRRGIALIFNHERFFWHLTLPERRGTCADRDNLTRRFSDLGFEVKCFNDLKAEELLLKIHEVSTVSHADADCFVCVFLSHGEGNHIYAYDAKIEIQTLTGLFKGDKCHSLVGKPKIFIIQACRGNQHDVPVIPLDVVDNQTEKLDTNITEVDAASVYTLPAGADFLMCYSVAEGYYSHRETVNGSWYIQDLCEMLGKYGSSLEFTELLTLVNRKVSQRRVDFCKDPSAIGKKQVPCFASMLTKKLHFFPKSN
In words: Executioner procaspase-6 activation assay (Ac-VEID-AFC fluorogenic substrate). The conditions noted are these: incubation with compound for 5 h at 37° C.; 100 nM procaspase. Put shortly: (§1)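 Procaspase at 100 nM incubated with compound (100 nM–100 μM) in 50 mM HEPES pH 7.4, KCl, DTT, 0.01% Triton X-100, 3% DMSO, 37 °C for 5 h; then 25 μM Ac-DEVD-AFC (procaspase-7) or Ac-VEID-AFC (procaspase-6), kinetic fluorescence 30 min (ex 365/em 495); EC50 reported.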

A further test has as its target T2, procaspase-7 (Homo sapiens, UniProt P55210).
T2 construct: His6 (C); made in house; host or cells: E. coli BL21(DE3)RP, pET-21b
T2 sequence (P55210 1-303): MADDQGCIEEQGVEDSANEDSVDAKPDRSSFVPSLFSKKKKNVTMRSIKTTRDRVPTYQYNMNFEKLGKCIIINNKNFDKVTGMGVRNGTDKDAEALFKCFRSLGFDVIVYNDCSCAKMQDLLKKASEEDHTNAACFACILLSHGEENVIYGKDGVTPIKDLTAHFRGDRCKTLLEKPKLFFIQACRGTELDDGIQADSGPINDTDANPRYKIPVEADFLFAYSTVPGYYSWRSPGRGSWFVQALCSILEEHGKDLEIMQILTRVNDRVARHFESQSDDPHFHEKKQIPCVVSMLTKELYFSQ
In words: Executioner procaspase-7 activation assay (Ac-DEVD-AFC fluorogenic substrate). The conditions noted are these: incubation with compound for 5 h at 37° C.; 100 nM procaspase. The method in brief:
as §1

In a further test the target is T3, procaspase-3 (Homo sapiens, UniProt P42574).
T3 construct: His6 (C); made in house; host or cells: E. coli BL21(DE3)RP, pET-23b
T3 sequence (P42574 1-277): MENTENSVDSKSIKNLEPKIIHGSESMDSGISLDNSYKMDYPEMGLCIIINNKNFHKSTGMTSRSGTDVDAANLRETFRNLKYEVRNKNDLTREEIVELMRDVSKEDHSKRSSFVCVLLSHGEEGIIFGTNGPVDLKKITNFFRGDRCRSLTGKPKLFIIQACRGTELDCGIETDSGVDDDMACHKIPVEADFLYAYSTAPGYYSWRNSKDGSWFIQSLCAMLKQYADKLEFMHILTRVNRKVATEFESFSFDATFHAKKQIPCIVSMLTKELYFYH
In words: Executioner procaspase-3 activation assay (Ac-DEVD-AFC fluorogenic substrate). Put shortly:
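Procaspase-3 at 100 nM was incubated with activating compounds (100 nM to 100 uM) in 50 mM HEPES pH 7.4, 50 mM KCl, 1 mM DTT and 0.01% Triton-X100, the detergent limiting aggregation artefacts. Protein, substrate and inhibitor were kept as frozen aliquots and thawed just before use.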

Where [1] appears, read: incubation with compound for 5 h at 37° C., 100 nM procaspase, read-out: Procaspase Activation 3.

Read-outs that look alike come from different tables or passages of the source. Some results are limits rather than exact numbers.

As to `O=C(Nc1cccc(-c2cccc3[nH]ccc23)c1)c1cc2cccc(O)c2oc1=O` [compound 167, 8-Hydroxy-2-oxo-2H-chromene-3-carboxylic acid [3-(1H-indol-4-yl)-phenyl]-amide], the EC50 at procaspase-6, on procaspase-7 and on procaspase-3 was greater than 100 µM throughout.

As to `COc1cccc2cc(C(=O)Nc3cccc(-c4cccc5[nH]ccc45)c3)c(=O)oc12` [compound 168, 8-Methoxy-2-oxo-2H-chromene-3-carboxylic acid [3-(1H-indol-4-yl)-phenyl]-amide], the EC50 on procaspase-6, on procaspase-7 and at procaspase-3 was greater than 100 µM throughout.

`O=C(Nc1cccc(-c2cnn(Cc3ccccc3)c2)c1)c1cc2cccc(O)c2oc1=O` [compound 169, 8-Hydroxy-2-oxo-2H-chromene-3-carboxylic acid [3-(1-benzyl-1H-pyrazol-4-yl)-phenyl]-amide]: the EC50 on procaspase-6, at procaspase-7 and at procaspase-3 (setting [1]) was greater than 100 µM each time.

As to `COc1cccc2cc(C(=O)Nc3cccc(-c4cnn(Cc5ccccc5)c4)c3)c(=O)oc12` [compound 170, 8-Methoxy-2-oxo-2H-chromene-3-carboxylic acid [3-(1-benzyl-1H-pyrazol-4-yl)-phenyl]-amide], the EC50 at procaspase-6, at procaspase-7 and at procaspase-3 (setting [1]) was greater than 100 µM each time.

In the case of `Cn1cc(-c2cccc(NC(=O)c3cc4cccc(O)c4oc3=O)c2)cn1` [compound 171, 8-Hydroxy-2-oxo-2H-chromene-3-carboxylic acid [3-(1-methyl-1H-pyrazol-4-yl)-phenyl]-amide], the EC50 on procaspase-6, on procaspase-7 and at procaspase-3 (setting [1]) was greater than 100 µM each time.

For `COc1cccc2cc(C(=O)Nc3cccc(-c4cnn(C)c4)c3)c(=O)oc12` [compound 172, 8-Methoxy-2-oxo-2H-chromene-3-carboxylic acid [3-(1-methyl-1H-pyrazol-4-yl)-phenyl]-amide], the EC50 at procaspase-6, at procaspase-7 and at procaspase-3 (setting [1]) was greater than 100 µM each time.

With `CC(C)(C)OC(=O)n1cccc1-c1cccc(NC(=O)c2cc3cccc(O)c3oc2=O)c1` [compound 173, 2-{3-[(8-Hydroxy-2-oxo-2H-chromene-3-carbonyl)-amino]-phenyl}-pyrrole-1-carboxylic acid tert-butyl ester], the EC50 at procaspase-6, on procaspase-7 and at procaspase-3 (setting [1]) was greater than 100 µM each time.

As for `COc1cccc2cc(C(=O)Nc3cccc(-c4cccn4C(=O)OC(C)(C)C)c3)c(=O)oc12` [compound 174, 2-{3-[(8-Methoxy-2-oxo-2H-chromene-3-carbonyl)-amino]-phenyl}-pyrrole-1-carboxylic acid tert-butyl ester], the EC50 at procaspase-6, at procaspase-7 and at procaspase-3 (setting [1]) was greater than 100 µM in each case.

Turning to `CC(C)(C)OC(=O)n1c(-c2cccc(NC(=O)c3cc4cccc(O)c4oc3=O)c2)cc2ccccc21` [compound 175, 2-{3-[(8-Hydroxy-2-oxo-2H-chromene-3-carbonyl)-amino]-phenyl}-indole-1-carboxylic acid tert-butyl ester], the EC50 on procaspase-6, at procaspase-7 and on procaspase-3 (setting [1]) was greater than 100 µM each time.

Turning to `COc1cccc2cc(C(=O)Nc3cccc(-c4cc5ccccc5n4C(=O)OC(C)(C)C)c3)c(=O)oc12` [compound 176, 2-{3-[(8-Methoxy-2-oxo-2H-chromene-3-carbonyl)-amino]-phenyl}-indole-1-carboxylic acid tert-butyl ester], the EC50 at procaspase-6, on procaspase-7 and on procaspase-3 (setting [1]) was greater than 100 µM each time.

Turning to `O=C(Nc1cccc(-c2cc(F)cc(F)c2)c1)c1cc2cccc(O)c2oc1=O` [compound 177, 8-Hydroxy-2-oxo-2H-chromene-3-carboxylic acid (3′,5′-difluoro-biphenyl-3-yl)-amide], the EC50 at procaspase-6, at procaspase-7 and on procaspase-3 (setting [1]) was greater than 100 µM each time.

Take `COc1cccc2cc(C(=O)Nc3cccc(-c4cc(F)cc(F)c4)c3)c(=O)oc12` [compound 178, 8-Methoxy-2-oxo-2H-chromene-3-carboxylic acid (3′,5′-difluoro-biphenyl-3-yl)-amide]: the values for the EC50 on procaspase-6, on procaspase-7 and on procaspase-3 (setting [1]) were 10 to 50 µM, greater than 100 µM and greater than 100 µM, respectively.
